Assay results taken from paper PMC7024302, “Ultrashort Cationic Lipopeptides–Effect of N-Terminal Amino Acid and Fatty Acid Type on Antimicrobial Activity and Hemolysis” (Molecules, 2020).
Values after ≈ are worked out from the molar mass of the structure shown. Residues, ends and D or L forms follow the SMILES beside them.

Columns and labels:
[1] = test system: A. baumannii ATCC BAA-1605; assay type: cell-based, Acinetobacter baumannii; conditions: ATCC BAA-1605, 18 h
In short: (§1)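 Broth microdilution per CLSI: bacteria at 5 × 10^5 CFU/mL in MHB were exposed to lipopeptides (0.5–256 µg/mL) for 18 h at 37 °C. MIC was the lowest concentration inhibiting noticeable growth; run in triplicate.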

[2] = test system: human red blood cells (hRBCs); assay type: cell-based; conditions: red cells of human, 1 h
In short: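 Fresh EDTA-anticoagulated human RBCs, PBS-washed, at 4% (v/v) final were exposed to lipopeptides at 0.5–256 µg/mL for 1 h at 37 °C. Released haemoglobin in supernatant read at 540 nm; PBS as 0% and 1% Triton X-100 as 100% haemolysis. Triplicates.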

[3] = test system: K. pneumoniae ATCC 700603; assay type: cell-based, Klebsiella pneumoniae; conditions: ATCC 700603, 18 h
In short: as §1

[4] = Determination of peptide hydrophobicity with RP-HPLC (adjusted retention time); assay type: physicochemical; conditions: RP-HPLC C18, linear 10–55% acetonitrile over 60 min, 0.1% TFA, 25.0 °C, UV 214 nm, triplicate; for tR’: Table 3, adjusted retention time as hydrophobicity; for Adjusted retention time: Table 2, nC = carbon atoms in fatty acid chain
In short: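 Peptides at 1 g/L in water with 0.1% TFA run on a C18 column (3.0 × 100 mm, 5 µm). Elution with a linear 10–55% acetonitrile gradient over 60 min, 0.1% TFA in both eluents, 0.5 mL/min, 25.0 ± 0.1 °C. Detection at 214 nm, in triplicate.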

[5] = test system: S. aureus ATCC 25923; assay type: cell-based, Staphylococcus aureus; conditions: ATCC 25923, 18 h
In short: as §1

[6] = test system: S. aureus ATCC 33591 (MRSA); assay type: cell-based, Staphylococcus aureus; conditions: ATCC 33591, 18 h
In short: as §1

[7] = test system: E. faecium ATCC 700221; assay type: cell-based, Enterococcus faecium; conditions: ATCC 700221, 18 h
In short: as §1

[8] = test system: C. albicans ATCC 10231; assay type: cell-based, Candida albicans; conditions: ATCC 10231, 24 h, pH 7
[9] = test system: K. aerogenes ATCC 13048; assay type: cell-based, Klebsiella aerogenes; conditions: ATCC 13048, 18 h
In short: as §1

[10] = test system: P. aeruginosa ATCC 9027; assay type: cell-based, Pseudomonas aeruginosa; conditions: ATCC 9027, 18 h
In short: as §1

| Compound | MIC A [1] [µg/mL] | HC50 [2] | MIC K [3] [µg/mL] | tR’ [4] [min] | MIC SA [5] [µg/mL] | MIC S [6] [µg/mL] | MIC E1 [7] [µg/mL] | MIC CA [8] [µg/mL] | MIC E2 [9] [µg/mL] | MIC PA [10] [µg/mL] | Adjusted retention time [4] [min] |
| --- | --- | --- | --- | --- | --- | --- | --- | --- | --- | --- | --- |
| CCCCCCCCCCCC(=O)N[C@@H](CC(C)C)C(=O)N[C@@H](CCCNC(=N)N)C(=O)N[C@@H](CCCNC(=N)N)C(N)=O [compound 45, C12-LRR-NH2] (HELM PEPTIDE1{[CCCCCCCCCCCC(=O)[*:2]].L.R.R.[am]}$$$$V2.0) | 64 (≈ 102 µM) | 112.81 (±1.39) µg/mL | 256 (≈ 410 µM) | 39.82 | 8 (≈ 12.8 µM) | 16 (≈ 25.6 µM) | 16 (≈ 25.6 µM) | 16 (≈ 25.6 µM) | 256 (≈ 410 µM) | 16 (≈ 25.6 µM) | 39.821 |
| CCCCCCCCCCCCCC(=O)N[C@@H](CC(C)C)C(=O)N[C@@H](CCCNC(=N)N)C(=O)N[C@@H](CCCNC(=N)N)C(N)=O [compound 46, C14-LRR-NH2] (HELM PEPTIDE1{[CCCCCCCCCCCCCC(=O)[*:2]].L.R.R.[am]}$$$$V2.0) | 64 (≈ 98 µM) | 29.50 (±1.05) µg/mL | 128 (≈ 196 µM) | 46.44 | 4 (≈ 6.13 µM) | 16 (≈ 24.5 µM) | 8 (≈ 12.3 µM) | 4 (≈ 6.13 µM) | 128 (≈ 196 µM) | 4 (≈ 6.13 µM) | 46.441 |
| CCCCCCCCCCCC(=O)N[C@@H](CCSC)C(=O)N[C@@H](CCCNC(=N)N)C(=O)N[C@@H](CCCNC(=N)N)C(N)=O [compound 49, C12-MRR-NH2] (HELM PEPTIDE1{[CCCCCCCCCCCC(=O)[*:2]].M.R.R.[am]}$$$$V2.0) | 64 (≈ 99.5 µM) | 206.50 (±9.14) µg/mL | 256 (≈ 398 µM) | 37.95 | 8 (≈ 12.4 µM) | 16 (≈ 24.9 µM) | 16 (≈ 24.9 µM) | 32 (≈ 49.8 µM) | 256 (≈ 398 µM) | 32 (≈ 49.8 µM) | – |

Continued, values first:

| MIC A [1] [µg/mL] | HC50 [2] | MIC K [3] [µg/mL] | tR’ [4] [min] | MIC SA [5] [µg/mL] | MIC S [6] [µg/mL] | MIC E1 [7] [µg/mL] | MIC CA [8] [µg/mL] | MIC E2 [9] [µg/mL] | MIC PA [10] [µg/mL] | Adjusted retention time [4] [min] | Compound |
| --- | --- | --- | --- | --- | --- | --- | --- | --- | --- | --- | --- |
| 64 (≈ 95.8 µM) | 212.08 (±6.12) µg/mL | 128 (≈ 192 µM) | 35.66 | 8 (≈ 12 µM) | 8 (≈ 12 µM) | 8 (≈ 12 µM) | 32 (≈ 47.9 µM) | 64 (≈ 95.8 µM) | 64 (≈ 95.8 µM) | – | CCCCCCCCCCCCCC(=O)N[C@@H](CCCCN)C(=O)N[C@@H](CCCNC(=N)N)C(=O)N[C@@H](CCCNC(=N)N)C(N)=O [compound 42, C14-KRR-NH2] (HELM PEPTIDE1{[CCCCCCCCCCCCCC(=O)[*:2]].K.R.R.[am]}$$$$V2.0) |
| 32 (≈ 47.7 µM) | 35.11 (±0.90) µg/mL | 128 (≈ 191 µM) | 44.69 | 4 (≈ 5.96 µM) | 8 (≈ 11.9 µM) | 8 (≈ 11.9 µM) | 4 (≈ 5.96 µM) | 128 (≈ 191 µM) | 8 (≈ 11.9 µM) | – | CCCCCCCCCCCCCC(=O)N[C@@H](CCSC)C(=O)N[C@@H](CCCNC(=N)N)C(=O)N[C@@H](CCCNC(=N)N)C(N)=O [compound 50, C14-MRR-NH2] (HELM PEPTIDE1{[CCCCCCCCCCCCCC(=O)[*:2]].M.R.R.[am]}$$$$V2.0) |
